In BigSolDB 2.1:

CS(=O)(=O)c1ccc(C=O)cc1
solubility (mole fraction)
Conditions | in acetic acid | in acetone | in acetonitrile | in ethanol | in isopropanol | in methanol | in n-butanol | in n-propanol | in toluene
283.15 K | 0.00336 | 0.00798 | 0.00598 | 0.000869 | 0.000288 | 0.00206 | 0.000596 | 0.000541 | 0.000746
285.65 K | 0.00368 | 0.00872 | 0.00661 | 0.000944 | 0.000321 | 0.0022 | 0.000652 | 0.000587 | 0.000825
288.15 K | 0.00401 | 0.00937 | 0.00734 | 0.00103 | 0.000355 | 0.00242 | 0.000724 | 0.000659 | 0.000919
290.65 K | 0.00445 | 0.0104 | 0.00814 | 0.00117 | 0.000405 | 0.00266 | 0.000828 | 0.000742 | 0.00103
293.15 K | 0.00488 | 0.0114 | 0.00903 | 0.0013 | 0.000445 | 0.00295 | 0.000923 | 0.000835 | 0.00115
295.65 K | 0.00539 | 0.0126 | 0.0101 | 0.00143 | 0.000502 | 0.00325 | 0.00102 | 0.000933 | 0.00128
298.15 K | 0.00598 | 0.0136 | 0.0111 | 0.00158 | 0.00056 | 0.00358 | 0.00114 | 0.00105 | 0.00144
300.65 K | 0.00662 | 0.0148 | 0.0123 | 0.00174 | 0.000629 | 0.00392 | 0.00128 | 0.00115 | 0.00161
303.15 K | 0.00727 | 0.0161 | 0.0137 | 0.00192 | 0.000703 | 0.00431 | 0.0014 | 0.00126 | 0.0018
305.65 K | 0.00811 | 0.0174 | 0.0152 | 0.00212 | 0.000796 | 0.00471 | 0.00155 | 0.00141 | 0.002
308.15 K | 0.00895 | 0.0189 | 0.017 | 0.00235 | 0.000894 | 0.00518 | 0.00171 | 0.00157 | 0.00224
310.65 K | 0.00984 | 0.0206 | 0.019 | 0.00258 | 0.00101 | 0.00572 | 0.00191 | 0.00176 | 0.0025
313.15 K | 0.0108 | 0.0226 | 0.021 | 0.00284 | 0.00112 | 0.00623 | 0.00211 | 0.00194 | 0.00276
315.65 K | 0.0118 | 0.0245 | 0.023 | 0.00311 | 0.00125 | 0.00678 | 0.00232 | 0.00216 | 0.00308
318.15 K | 0.0129 | 0.0269 | 0.0252 | 0.00341 | 0.00139 | 0.00739 | 0.0026 | 0.00241 | 0.0034
